PubChem BioAssay (NCI)
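Compound exposure: 48 hours, 5 concentrations, 96-well plates. At the GI50, growth is halved. TGI denotes the concentration required for complete inhibition of growth.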

How the values were obtained:
Assay in all cases: DTP human tumour cell line panel, 48 h
BT-549 breast = test system: BT-549 breast
SK-MEL-2 melanoma = test system: SK-MEL-2 melanoma
ACHN renal = test system: ACHN renal
KM12 colon = test system: KM12 colon
SK-MEL-28 melanoma = test system: SK-MEL-28 melanoma
TK-10 renal = test system: TK-10 renal
NCI/ADR-RES ovarian = test system: NCI/ADR-RES ovarian
SW-620 colon = test system: SW-620 colon
HCT-116 colon = test system: HCT-116 colon
HCC-2998 colon = test system: HCC-2998 colon
K-562 leukemia = test system: K-562 leukemia
T-47D breast = test system: T-47D breast
MDA-MB-435 = test system: MDA-MB-435
RXF 393 renal = test system: RXF 393 renal
UACC-257 melanoma = test system: UACC-257 melanoma
MOLT-4 leukemia = test system: MOLT-4 leukemia
NCI-H522 lung = test system: NCI-H522 lung
OVCAR-4 ovarian = test system: OVCAR-4 ovarian
SNB-75 CNS = test system: SNB-75 CNS
PC-3 prostate = test system: PC-3 prostate
MCF7 breast = test system: MCF7 breast
NCI-H23 lung = test system: NCI-H23 lung
786-0 renal = test system: 786-0 renal
U251 CNS = test system: U251 CNS
A549 NSCLC = test system: A549 NSCLC
MDA-MB-231 breast = test system: MDA-MB-231 breast
M14 melanoma = test system: M14 melanoma
NCI-H460 lung = test system: NCI-H460 lung
SF-539 CNS = test system: SF-539 CNS
UACC-62 melanoma = test system: UACC-62 melanoma
SK-MEL-5 melanoma = test system: SK-MEL-5 melanoma
SK-OV-3 ovarian = test system: SK-OV-3 ovarian
HOP-92 NSCLC = test system: HOP-92 NSCLC
A498 renal = test system: A498 renal
NCI-H226 lung = test system: NCI-H226 lung
OVCAR-5 ovarian = test system: OVCAR-5 ovarian
IGROV1 ovarian = test system: IGROV1 ovarian
HS 578T breast = test system: HS 578T breast
HOP-62 NSCLC = test system: HOP-62 NSCLC
CAKI-1 renal = test system: CAKI-1 renal
DU-145 prostate = test system: DU-145 prostate
SR leukemia = test system: SR leukemia
RPMI-8226 leukemia = test system: RPMI-8226 leukemia
SN12C renal = test system: SN12C renal
MALME-3M melanoma = test system: MALME-3M melanoma
COLO 205 colon = test system: COLO 205 colon
CCRF-CEM leukemia = test system: CCRF-CEM leukemia
OVCAR-3 ovarian = test system: OVCAR-3 ovarian
SF-295 CNS = test system: SF-295 CNS
HL-60(TB) leukemia = test system: HL-60(TB) leukemia
SF-268 CNS = test system: SF-268 CNS
UO-31 renal = test system: UO-31 renal
LOX IMVI melanoma = test system: LOX IMVI melanoma
HT29 colon = test system: HT29 colon
HCT-15 colon = test system: HCT-15 colon
SNB-19 CNS = test system: SNB-19 CNS
OVCAR-8 ovarian = test system: OVCAR-8 ovarian

`COc1cc(C2=Nc3c/c(=C\c4c(O)[nH]c5ccc(Cl)cc45)ccc3=N2)cc(OC)c1OC` showed a GI50 (BT-549 breast) of 2.51 µM, a TGI (BT-549 breast) of 9.94 µM and a GI50 (SK-MEL-2 melanoma) of 9.01 µM. The TGI (SK-MEL-2 melanoma) was 30.2 µM, the GI50 (ACHN renal) was 6.67 µM and the TGI (ACHN renal) was 24.2 µM. It also gave a GI50 (KM12 colon) of 3.09 µM, a TGI (KM12 colon) of 12.2 µM and a GI50 (SK-MEL-28 melanoma) of 3.2 µM. The TGI (SK-MEL-28 melanoma) was 12.7 µM, the GI50 (TK-10 renal) was 5.76 µM and the TGI (TK-10 renal) was 17.4 µM. For the same compound, the GI50 (NCI/ADR-RES ovarian) was 5.96 µM, the TGI (NCI/ADR-RES ovarian) was 54.7 µM and the GI50 (SW-620 colon) was 1.98 µM. For the same compound, the TGI (SW-620 colon) was 4.41 µM, the GI50 (HCT-116 colon) was 1.56 µM and the TGI (HCT-116 colon) was 3.54 µM. The GI50 (HCC-2998 colon) was 4.44 µM, the TGI (HCC-2998 colon) was 21.8 µM and the GI50 (K-562 leukemia) was 4.21 µM. For the same compound, the TGI (K-562 leukemia) was 25.5 µM, the GI50 (T-47D breast) was 9.13 µM and the TGI (T-47D breast) was 37.3 µM. For the same compound, the GI50 (MDA-MB-435) was 1.73 µM, the TGI (MDA-MB-435) was 3.86 µM and the GI50 (RXF 393 renal) was 2.78 µM. The TGI (RXF 393 renal) was 7.38 µM, the GI50 (UACC-257 melanoma) was 1.96 µM and the TGI (UACC-257 melanoma) was 4.77 µM. For the same compound, the GI50 (MOLT-4 leukemia) was 2.43 µM, the TGI (MOLT-4 leukemia) was 12.9 µM and the GI50 (NCI-H522 lung) was 3.17 µM. For the same compound, the TGI (NCI-H522 lung) was 10.7 µM, the GI50 (OVCAR-4 ovarian) was 2.18 µM and the TGI (OVCAR-4 ovarian) was 7.9 µM. The GI50 (SNB-75 CNS) was 1.78 µM, the TGI (SNB-75 CNS) was 10.6 µM and the GI50 (PC-3 prostate) was 2.94 µM. For the same compound, the TGI (PC-3 prostate) was 14.3 µM, the GI50 (MCF7 breast) was 1.43 µM and the TGI (MCF7 breast) was 3.56 µM. It also gave a GI50 (NCI-H23 lung) of 1.96 µM, a TGI (NCI-H23 lung) of 7.61 µM and a GI50 (786-0 renal) of 2.89 µM. The TGI (786-0 renal) was 9.91 µM, the GI50 (U251 CNS) was 1.79 µM and the TGI (U251 CNS) was 3.91 µM. For the same compound, the GI50 (A549 NSCLC) was 2.87 µM, the TGI (A549 NSCLC) was 10.7 µM and the GI50 (MDA-MB-231 breast) was 1.5 µM. The TGI (MDA-MB-231 breast) was 6.26 µM, the GI50 (M14 melanoma) was 1.71 µM and the TGI (M14 melanoma) was 3.83 µM. It also gave a GI50 (NCI-H460 lung) of 2.7 µM, a TGI (NCI-H460 lung) of 8.65 µM and a GI50 (SF-539 CNS) of 4 µM. For the same compound, the TGI (SF-539 CNS) was 15.9 µM, the GI50 (UACC-62 melanoma) was 1.94 µM and the TGI (UACC-62 melanoma) was 7.97 µM. The GI50 (SK-MEL-5 melanoma) was 1.58 µM, the TGI (SK-MEL-5 melanoma) was 3.55 µM and the GI50 (SK-OV-3 ovarian) was 16.2 µM. The TGI (SK-OV-3 ovarian) was 32.5 µM, the GI50 (HOP-92 NSCLC) was 0.444 µM and the TGI (HOP-92 NSCLC) was 6.35 µM. The GI50 (A498 renal) was 29.4 µM, the TGI (A498 renal) was > 100 µM and the GI50 (NCI-H226 lung) was 10.3 µM. For the same compound, the TGI (NCI-H226 lung) was 29.7 µM, the GI50 (OVCAR-5 ovarian) was 12 µM and the TGI (OVCAR-5 ovarian) was 38.8 µM. For the same compound, the GI50 (IGROV1 ovarian) was 5.46 µM, the TGI (IGROV1 ovarian) was 20.3 µM and the GI50 (HS 578T breast) was 1.69 µM. For the same compound, the TGI (HS 578T breast) was 5.86 µM, the GI50 (HOP-62 NSCLC) was 1.95 µM and the TGI (HOP-62 NSCLC) was 4.09 µM. It also gave a GI50 (CAKI-1 renal) of 5.5 µM, a TGI (CAKI-1 renal) of 27.8 µM and a GI50 (DU-145 prostate) of 2.34 µM. For the same compound, the TGI (DU-145 prostate) was 5.19 µM, the GI50 (SR leukemia) was 1.94 µM and the TGI (SR leukemia) was 5.05 µM. The GI50 (RPMI-8226 leukemia) was 2.04 µM, the TGI (RPMI-8226 leukemia) was 5.77 µM and the GI50 (SN12C renal) was 2.11 µM. It also gave a TGI (SN12C renal) of 6.5 µM, a GI50 (MALME-3M melanoma) of 1.79 µM and a TGI (MALME-3M melanoma) of 3.71 µM. It also gave a GI50 (COLO 205 colon) of 2.45 µM, a TGI (COLO 205 colon) of 7.27 µM and a GI50 (CCRF-CEM leukemia) of 2.29 µM. For the same compound, the TGI (CCRF-CEM leukemia) was 8.55 µM, the GI50 (OVCAR-3 ovarian) was 3.07 µM and the TGI (OVCAR-3 ovarian) was 11.1 µM. It also gave a GI50 (SF-295 CNS) of 11.7 µM, a TGI (SF-295 CNS) of 29.7 µM and a GI50 (HL-60(TB) leukemia) of 3.13 µM. For the same compound, the TGI (HL-60(TB) leukemia) was 14.6 µM, the GI50 (SF-268 CNS) was 1.93 µM and the TGI (SF-268 CNS) was 3.78 µM. The GI50 (UO-31 renal) was 2.96 µM, the TGI (UO-31 renal) was 16.1 µM and the GI50 (LOX IMVI melanoma) was 1.74 µM. The TGI (LOX IMVI melanoma) was 4.3 µM, the GI50 (HT29 colon) was 2.11 µM and the TGI (HT29 colon) was 4.5 µM. It also gave a GI50 (HCT-15 colon) of 3.27 µM, a TGI (HCT-15 colon) of 11.6 µM and a GI50 (SNB-19 CNS) of 4.55 µM. For the same compound, the TGI (SNB-19 CNS) was 13.5 µM, the GI50 (OVCAR-8 ovarian) was 1.95 µM and the TGI (OVCAR-8 ovarian) was 5.24 µM.
